Experimental data from patent publication US9474759B2 (priority 2011, dated 2016).
Read-outs that look alike come from different tables or passages of the source.

Legend:
[1] = biological target: MD145 3CLpro (codon-optimized, full-length, N-terminal 6 His, recombinant) (Lordsdale virus, UniProt P54634); test: biochemical; parameters: species or system norovirus strain MD145 (human norovirus GII)
[2] = biological target: recombinant 3C or 3CL of MD145 (Norovirus Hu/GII.4/MD145-12/1987/US (Maryland virus), UniProt Q8V0P3); test: FRET protease assay, MD145 3CL (Example 2); assay type: biochemical, norovirus strain MD145
[3] = biological target: NV 3CLpro (codon-optimized, full-length, N-terminal 6 His, recombinant) (Norovirus, UniProt Q83883); assay type: biochemical, Norwalk virus (human norovirus GI)
[4] = biological target: PV 3Cpro (codon-optimized, N-terminal 6 His, recombinant) (Poliovirus type 1, UniProt P03300); test: biochemical; parameters: species or system poliovirus (poliomyelitis virus)
TGEV = test: Cell-based screening, TGEV in ST cells (Example 2); parameters: species or system transmissible gastroenteritis virus; conditions: Alphacoronavirus 1; ST cells; read-out: Inhibition [ED50 (μM)] against various viruses: Coronavirus, TGEV
Protocol: (§1) 3. Cell-based screening of inhibitor. The effects of each inhibitor on the viral replication were examined. The list of viruses and corresponding cell lines are listed above in Table 2. Briefly, confluent cells were inoculated with virus at a MOI of 5 or 0.05 for 1 hr, and medium was replaced with medium containing mock-medium or each compound (up to 100 μM). The virus infected cells were further incubated for up to 96 hrs, and the replication of virus was measured by TCID50 assay with the 10-fold dilution of each sample used for virus titration (Reed and Muench, 1938). In some viruses, the virus protein and genome expression levels were detected by Western blot analysis and real-time qRT-PCR, respectively, as described below. The IC50s of the compounds were calculated.

MNV-1 = test: Cell-based screening, MNV-1 in RAW267.4 cells (Example 2); parameters: species or system murine norovirus; conditions: Norwalk virus; RAW267.4 cells; read-out: Inhibition [ED50 (μM)] against various viruses: Calicivirus, MNV-1
Protocol: as §1

[5] = tested on: Norwalk virus (HG23 cells); test: microbe, parasite or virus in culture; assay type: cell-based; conditions: HG23, read-out: Inhibition [ED50 (μM)] against various viruses: Calicivirus, HG23 cells
[6] = biological target: Norwalk virus 3CL protease (Norovirus, UniProt Q83883); test: Recombinant NV protease fluorogenic substrate inhibition assay (Example 1); assay type: biochemical; conditions: 30 min pre-incubation, 30° C., pH 8.0
Protocol: After a 30 minute incubation period, 5 μL of 12 μM Edans-[…]-Dabcyl (SEQ ID NO:1) substrate in DMSO was then added and the increase in fluorescence was monitored for 30 minutes at an excitation and emission wavelength of 360 and 460 nm, respectively. Using a HORIBA FluoroMax 4 spectrofluorometer. Hydrolysis curves were linear. The final enzyme and substrate concentrations were 2.5 μM and 300 nM, respectively. […] Furthermore, the nature of the cap was also important (compare, for example, inhibitors A and D).

TGEV 3CL protease = TGEV 3CL protease (Porcine transmissible gastroenteritis coronavirus, UniProt P0C6Y5); test: FRET-based protease assay, TGEV 3CL protease (Example 5); assay type: biochemical, TGEV Miller strain
Source text: The 3CL proteases are highly conserved among all coronaviruses, and feline coronavirus 3CL protease is closely related TGEV 3CL protease. Therefore we cloned and expressed the TGEV 3CL protease for the FRET assay. The cDNA encoding the full length of 3CL protease of TGEV Miller strain was amplified with RT-PCR as previously described. The primers contained the nucleotide sequence of the 3CL protease for cloning as well as the nucleotides for 6 Histidine in the forward primer. The amplified product was subcloned to pET-28a(+) vector (GenScript, Piscataway, N.J.). The expression and purification of the 3CL protease was performed with a standard method described previously by our lab (Chang et al., 2012b; Takahashi et al., 2012; Tiew et al., 2011).
Our protease inhibitor compounds and commercial cathepsin inhibitors CA074-Me and E64d were prepared in DMSO as stock solutions (10 mM), and further diluted in assay buffer consisting of 20 mM HEPES, 0.4 mM EDTA, 30% glycerol, 120 mM NaCl, and 4 mM DTT at pH 6. […] TGEV 3CL protease at a final concentration of 0.1˜0.2 μM and the substrate (Dabcyl-[…]-Edans; SEQ ID NO:2) at 10 μM were used for the studies. The substrate was purchased from Bachem Americas, Inc (Torrance, Calif.). Compounds at various concentrations (0˜50 μM) were pre-incubated with TGEV 3CL protease in 25 μl for 30 min at 37° C., and the same volume of substrate was added to a 96-well black plate. The mixtures were then incubated at 37° C. for 60 min, and fluorescence readings were obtained on a microplate reader at 360 nm excitation and 480 nm emission wavelengths. The relative fluorescence units (RFU) were calculated by subtracting background (substrate control well without protease) from the fluorescence readings. The dose-dependent FRET inhibition curves were fitted with variable slope (four parameters) using GraphPad Prism software (La Jolla, Calif.) in order to determine the compound concentration that gives a half-maximum response (IC50).

FECV-1683 = FECV-1683 replication in CRFK cells, TCID50 method; assay type: cell-based, feline coronavirus; conditions: Alphacoronavirus 1, MOI 0.05, mean ± SEM
Protocol: Crandell Rees feline kidney (CRFK) cells were maintained in minimal essential medium containing 2-5% fetal bovine serum and antibiotics (chlortetracycline [25 μg/ml], penicillin [250 U/ml], and streptomycin [250 μg/ml]). FIPV WSU 79-1146 and FECV WSU 79-1683 strains are the prototypes of serotype II FIPV or FECV, respectively, and were purchased from ATCC (Manassas, Va.).
The cells were further incubated in the presence of each compound for 1 hr at 37° C. Then […] or FECV-1683 was inoculated to the cells at a multiplicity of infection (MOI) of 0.05 or 5.
b. TCID50 Method. A standard TCID50 method with the 10-fold dilution of each sample was used for virus titration.

Teschovirus = test: organism not typed; assay type: cell-based, porcine teschovirus; conditions: read-out: Inhibition [ED50 (μM)] against various viruses: Picornavirus, Teschovirus
[7] = biological target: MNV-1 3CLpro (codon-optimized, full-length, recombinant) (Norovirus, UniProt Q80J95); test: biochemical; parameters: species or system murine norovirus-1 (GV)
MNV-1 3CLpro (codon-optimized, full-length, recombinant), sequence (Q80J95 995-1177): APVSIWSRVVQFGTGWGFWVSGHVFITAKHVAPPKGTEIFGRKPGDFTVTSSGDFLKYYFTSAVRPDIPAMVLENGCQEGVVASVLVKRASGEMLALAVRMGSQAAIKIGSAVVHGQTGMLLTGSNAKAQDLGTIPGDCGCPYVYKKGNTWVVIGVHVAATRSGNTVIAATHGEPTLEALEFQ

TGEV 3CL protease, sequence (P0C6Y5 2879-3180): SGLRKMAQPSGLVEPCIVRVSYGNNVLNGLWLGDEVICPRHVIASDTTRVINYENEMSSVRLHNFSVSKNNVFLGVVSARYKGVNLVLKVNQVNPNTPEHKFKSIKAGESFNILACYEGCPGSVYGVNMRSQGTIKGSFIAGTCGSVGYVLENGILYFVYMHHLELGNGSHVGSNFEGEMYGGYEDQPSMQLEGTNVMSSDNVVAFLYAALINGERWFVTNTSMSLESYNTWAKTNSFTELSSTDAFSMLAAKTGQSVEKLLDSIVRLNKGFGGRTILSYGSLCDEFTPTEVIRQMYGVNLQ
PV 3Cpro (codon-optimized, N-terminal 6 His, recombinant), sequence (P03300 1566-1748 limits assumed): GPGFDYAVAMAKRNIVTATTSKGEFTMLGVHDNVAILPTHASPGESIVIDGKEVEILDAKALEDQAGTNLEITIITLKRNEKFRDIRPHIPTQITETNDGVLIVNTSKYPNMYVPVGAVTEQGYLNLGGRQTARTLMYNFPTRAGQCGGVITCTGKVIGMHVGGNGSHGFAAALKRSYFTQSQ
MD145 3CLpro (codon-optimized, full-length, N-terminal 6 His, recombinant), sequence (P54634 1009-1189): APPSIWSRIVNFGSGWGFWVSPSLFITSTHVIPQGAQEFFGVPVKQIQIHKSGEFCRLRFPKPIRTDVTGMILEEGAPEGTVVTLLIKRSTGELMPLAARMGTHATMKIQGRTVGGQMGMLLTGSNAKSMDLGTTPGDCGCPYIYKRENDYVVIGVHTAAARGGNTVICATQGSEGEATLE
NV 3CLpro (codon-optimized, full-length, N-terminal 6 His, recombinant), sequence (Q83883 1101-1281): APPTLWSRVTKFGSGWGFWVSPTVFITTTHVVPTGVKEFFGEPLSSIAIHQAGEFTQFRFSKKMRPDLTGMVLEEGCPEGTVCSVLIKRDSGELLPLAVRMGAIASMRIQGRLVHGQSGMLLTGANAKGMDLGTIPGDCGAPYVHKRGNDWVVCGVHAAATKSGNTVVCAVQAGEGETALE
Norwalk virus 3CL protease, sequence (Q83883 1101-1281): as above
recombinant 3C or 3CL of MD145, sequence (Q8V0P3 entry or part of it): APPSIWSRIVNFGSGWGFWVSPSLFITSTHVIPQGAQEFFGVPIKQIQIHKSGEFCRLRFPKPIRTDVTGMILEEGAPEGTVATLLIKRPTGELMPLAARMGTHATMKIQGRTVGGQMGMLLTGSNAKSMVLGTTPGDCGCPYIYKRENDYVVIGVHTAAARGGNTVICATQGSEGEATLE

## CC(C)C[C@H](NC(=O)OCc1ccccc1)C(=O)N[C@H](C=O)C[C@@H]1CCNC1=O [GC373]
[1]
  IC50: 1180 nM
[2]
  IC50: 20.3 µM
[3]
  IC50: 640 nM
[4]
  IC50: 2020 ± 1560 nM
TGEV
  EC50: 0.3 µM
MNV-1
  EC50: 6.5 µM
[5]
  EC50: 2.1 µM
[6]
  inhibitory activity against Norwalk virus 3CL protease (in words): dose-dependent inhibition
TGEV 3CL protease; TGEV 3CL protease, read-out: IC50 against 3CL protease in the FRET assay
  IC50: 980 nM
TGEV 3CL protease; compound at 50 μM final concentration
  inhibition of the activity of TGEV 3CL protease (in words): remarkably inhibited
FECV-1683; 24 hr post infection, read-out: Inhibition [ED50 (μM)] against FECV-1683, 24 hrs
  EC50: 0.04 ± 0.01 µM
FECV-1683; 48 hr post infection, read-out: Inhibition [ED50 (μM)] against FECV-1683, 48 hrs
  EC50: 0.09 ± 0.01 µM
Teschovirus
  EC50: 0.15 µM
[7]
  IC50: 1340 nM
